Assay results from article PMC4013371 (The Journal of Veterinary Medical Science, 2013).

What was measured:
[1] = CLM 10 mg/kg PO, healthy beagles, not steady state; cited from earlier work
[2] = Adverse effects during multiple CLM treatment; assay type: in vivo, healthy beagles (dogs); settings: CLM about 10 mg/kg PO twice daily for ten days; three healthy beagles

Compound: CC[C@H]1OC(=O)[C@H](C)[C@@H](O[C@H]2C[C@@](C)(OC)[C@@H](O)[C@H](C)O2)[C@H](C)[C@@H](O[C@@H]2O[C@H](C)C[C@H](N(C)C)[C@H]2O)[C@](C)(OC)C[C@@H](C)C(=O)[C@H](C)[C@@H](O)[C@]1(C)O [CLM, Clarithromycin]
- serum concentrations [1]: approximately 3 µg/ml
- adverse effects associated with CLM, such as gastrointestinal irritation [2]: no adverse effects
